Where no end group is shown, it is not given here. The star is where a group is joined. Biotin = O=C1N[C@H]2[C@H](CS[C@H]2CCCCC(=O)*)N1

Assay [1] concerns HSPA8. Conditions: pooled fractions 4 and 5, anti-HSPA8 1:500, three replicates, versus control fractions.
Method: A monomeric avidin column (Thermo Scientific) was washed with 8 ml PBS followed by addition of 6 ml (2 mM D-biotin in PBS, pH = 7.2) to block any non-reversible biotin binding sites. Regeneration buffer (0.1M glycine, pH 2.8, 12 ml) was added to remove biotin from the reversible binding sites followed by washing with 8 ml of PBS. One ml of 0.1 mM biotin-TLQP-21 was mixed with 900 μl of PBS and 100 μl of 1mM TCEP and the resulting solution was applied to the column, which was incubated for an hour at room temperature. The column was then washed with 12 ml of PBS. A 2ml solution containing 700 μl of SH-SY5Y cell lysate with a protein concentration of 10μg/μl was diluted with 1.3 ml of PBS and applied then to the column. The column was then washed with 12 ml of PBS, and eluted with 10 ml of blocking/elution buffer. Fractions of 500 μl were collected and kept on ice until further use for analysis by SYPRO® Ruby Protein Gel Stain (Lonza), and Western blot. As a control, cell lysate solution was added under the same conditions to a column to which biotin-TLQP-21 was not attached.
After electrophoresis, as described earlier, proteins were transferred onto PVDF membranes (Millipore, Bedford) using semi-dry method (Trans-blot SD semi-dry transfer cell, Biorad). […]
The subject of assay [2] is Heat shock cognate 71 kDa protein (HSPA8/HSC70). In words: Avidin-agarose affinity chromatography of SH-SY5Y cell homogenate with biotin-TLQP-21, SDS-PAGE/SYPRO Ruby and MASCOT MS/MS identification; HSPA8. The class given is binding, human. Conditions: fractions 4-5, control column without biotin-TLQP-21. On the procedure: Portions (25 μl) of each elution fraction from avidin-agarose affinity chromatography were boiled in 2x Laemmli buffer and loaded to a 10% SDS-PAGE gel. Electrophoresis was carried out at 200V for 60 minutes. After completion, the gel was washed in dH2O for 10 minutes. […] The gel was then transferred to a clean staining container, and washed for 5 minutes with fixing solution followed by washing for 5 minutes in dH2O.Finally, the gel was imaged in a Molecular Imager Gel Doc system (Bio Rad, Hercules) using the highest sensitivity of the CCD camera (CoolSNAP HQ2, Roper Scientific) at a resolution of 1392 x 1040 pixels with 12 bit gray scale levels per pixel. […] Extracted peptides were analyzed by LC-MS/MS. […] Ionized peptides were detected in a Bruker Amazon ETD ion trap. Automated analysis of mass data was performed by Data Analysis 4.0 and BioTools 3.2 from Bruker Daltonik GmbH. Database search was done with the Mascot v2.3 search tool (Matrix Science) screening SwissProt (release 57.15). Searches were limited to human taxonomy selecting carbamidomethyl cysteine as a fixed modification and oxidized methionine as potential variable modification. […] All spectra and database results were scrutinized manually in details using the above software, especially in the case of identifications based on one peptide hit. […]

Assay [3] deals with HSPA8 on the surface of SH-SY5Y cells. Briefly: Crosslinking of biotinylated TLQP-21 to live SH-SY5Y surface membrane proteins, avidin affinity, Western blot. It counts as binding, human. Conditions: 50 μM biotin-TLQP-21, 1 mM Sulfo-EMCS, 1 hour, room temperature; versus control without peptide. For orientation: A western blot detects proteins with antibodies after separation by electrophoresis.
Method: After electrophoresis, as described earlier, proteins were transferred onto PVDF membranes (Millipore, Bedford) using semi-dry method (Trans-blot SD semi-dry transfer cell, Biorad). The membranes were then blocked 5% BSA in TBS-T solution (Tris-buffered saline with 0.1% tween 20, pH = 7.6) for 1 hour at room temperature, and probed with anti-HSC70/HSPA8 (Abcam) antibody at 1:500 dilution. Anti-rabbit antibody (Dako) at a 1:2000 dilution was used as the secondary antibody. Subsequently, the membrane was incubated with Luminata Forte Western HRP substrate [Merck Millipore] for 5 minutes and developed using Hypercassette and Amersham hyperfilm (GE Healthcare).
SH-SY5Y cells were grown as described above until confluence. Culture medium was removed, cells were washed three times with cold PBS and incubated with 2 mL of PBS containing 1 mM Sulfo-EMCS with 50 μM biotin-TLQP-21 for 1 hour at room temperature. Control cells were incubated under the same conditions with the same reaction mixture lacking biotin-TLQP-21. The cross-linking reaction was stopped adding Tris-HCl, pH 7.8 to a final concentration 50 mM. Cells were washed twice with cold PBS and solubilized in lysis buffer (20 mM HEPES pH 7.4, 2 mM EGTA, 1 mM DTT, 1 mM sodium orthovanadate, 1% Triton X-100, 10% glycerol, 2 μM leupeptin, 400 μM PMSF, 50 μM β-glycerophosphate and 100 μg/ml aprotinin). […]

Assay [4] has as its target T1, HSPA8 (Homo sapiens, UniProt P11142).
T1 construct: HSPA8 immobilization was performed by adding 15 μl of 25 μg/ml of protein in 20 mM sodium acetate buffer
Conditions: ref [45]; read-out: affinity of HSPA8 for the phosphorylated peptide P140; cited from earlier work.

Assay [5] relates to globular head of the complement component C1q receptor (gC1qR). Conditions: ref [29]; cited from earlier work. An excerpt: (§1) Remarkably, despite the large volume of data on effects of VGF-derived peptides, very little is known about their receptors, downstream signaling routes and mechanisms of action. […] We reasoned that the neuroblastoma cell line SH-SY5Y would be a good model to study receptors and downstream mechanisms of VGF-derived peptides, given the substantial expression and secrete levels of VGF and VGF-derived ...

The subject of assay [6] is complement component-3a receptor 1 (C3AR1). Conditions: ref [27]–[28]; cited from earlier work.
Excerpt: as §1

T1 sequence (P11142 whole entry): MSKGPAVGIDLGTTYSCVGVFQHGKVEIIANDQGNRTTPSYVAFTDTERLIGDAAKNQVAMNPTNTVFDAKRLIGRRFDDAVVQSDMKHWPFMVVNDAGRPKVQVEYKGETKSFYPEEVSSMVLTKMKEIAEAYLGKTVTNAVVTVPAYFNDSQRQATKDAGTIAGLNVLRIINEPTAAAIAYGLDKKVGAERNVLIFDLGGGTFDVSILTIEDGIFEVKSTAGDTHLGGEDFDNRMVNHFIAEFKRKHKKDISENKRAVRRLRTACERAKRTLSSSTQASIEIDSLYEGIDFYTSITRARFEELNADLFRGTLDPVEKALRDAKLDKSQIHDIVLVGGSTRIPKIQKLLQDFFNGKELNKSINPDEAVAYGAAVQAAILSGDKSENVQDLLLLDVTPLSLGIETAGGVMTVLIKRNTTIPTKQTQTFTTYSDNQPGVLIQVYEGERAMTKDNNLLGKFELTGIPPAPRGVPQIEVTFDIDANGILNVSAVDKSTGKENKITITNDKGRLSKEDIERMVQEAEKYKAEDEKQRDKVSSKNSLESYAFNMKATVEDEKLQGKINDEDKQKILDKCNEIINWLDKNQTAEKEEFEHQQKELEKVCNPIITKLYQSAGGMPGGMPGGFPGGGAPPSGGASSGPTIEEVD

Regarding “Biotin-TLQPPSALRRRHYHHALPPSRC [biotin-TLQP-21, amino-terminally biotinylated human TLQP-21 containing an extra cysteine residue at the C-terminus]”, the “Western blot detection of HSPA8 in eluate of biotin-TLQP-21 column” value in assay [1] is “confirmed the ~70 kDa protein as HSPA8 but not in the controls”. The “~70 kDa protein bound on biotin-TLQP-21 column (SYPRO Ruby)” value in assay [2] is “A ~70 kDa protein was bound”; in assay [2] (listed as biotinyl-TLQP-21), “a protein band of ∼70 kDa was detected by SYPRO Ruby staining”. For the same substance, the “cross-linking to HSPA8 on live cell surface” value in assay [3] is on record as “A positive ~70kDa band corresponding to HSPA8 was detected”.

In the case of “P140: phosphorylated peptide P140, corresponds to a portion of the spliceosomal U1-70K snRNP protein, recognized by lupus CD4+ T cells (RIHMVYSKRSGKPRGYAFIEY; phospho-Ser140 (10th residue of the peptide); P140/Lupuzor is conventionally U1-70K (SNRNP70) 131-151)”, in assay [4], the Kd was ~7 µM.

Turning to “TLQPPASSRRRHFHHALPPAR [murine TLQP-21, mouse TLQP-21]”, in assay [5], the gC1qR as receptor entry is given as “identified as potential receptors”. Also, the C3AR1 as receptor result in assay [6] is on record as “identified as potential receptors”.

(Values after publication PMC5608341, “The human VGF-derived bioactive peptide TLQP-21 binds heat shock 71 kDa protein 8 (HSPA8)on the surface of SH-SY5Y cells” (PLoS ONE, 2017).)
